{"source": "patent US11000501B2", "about": "“Composition for preventing or treating neurological and mental disorders, containing syringaresinol” (SEOUL NATIONAL UNIVERSITY R&DB FOUNDATION, priority 2016, dated 2021)", "assay_type_in_all_cases": "cell-based, mouse", "key": {"[1]": {"test_system": "CA1 neurons (inhibitory synaptic transmission)", "experiment": "Miniature IPSC (mIPSC) recording in CA1 neurons", "method": "A miniature EPSC (mEPSC) was measured at −70 mV with a pipette solution. In this connection, the pipette solution contained 110 mM K-gluconate, 20 mM KCl, 8 mM NaCl, 10 mM HEPES, 0.5 mM QX-314-C1, 4 mM Mg-ATP, 0.3 mM Na-GTP and 0.5 mM EGTA. The solution had pH 7.25 and 290 mOsm/kg. Voluntary action potentials and IPSCs were blocked by TTX (1 μM) and picrotoxin (50 μM), respectively. For mIPSC recording, the K-gluconate in the pipette solution was replaced with the KCl having the same number of moles as the K-gluconate.\nThe effect of SYR on the miniature IPSC (mIPSC) was checked."}, "[2]": {"test_system": "Schaffer collateral (SC)-CA1 synapse of the hippocampus", "experiment": "fEPSP recording in hippocampal SC-CA1 synapse (hippocampal slices)", "conditions": "for first and second fEPSPs: paired pulse interval 100 ms", "method": "A hippocampus slice (400 μm thick) was prepared in a cold dissection buffer using a vibrating machine (Vibratome, Leica, Germany) and then a CA3 region of each slice was removed surgically immediately after the slice formation. In this connection, the cold dissection buffer contained sucrose 230 mM; NaHCO3 25 mM; KCl 2.5 mM; NaH2PO4 1.25 mM; D-glucose 10 mM; Na-ascorbic acid salt 1.3 mM; MgCl2 3 mM; CaCl2 0.5 mM, 95% O2/5% CO2 and had pH 7.4. The slice was recovered in a normal ACSF (artificial cerebrospinal fluid) for 1 hour and then maintained at room temperature (23 to 25° C.) until recording. […] All electrophysiological experiments were performed in a recording chamber while the samples were immersed in the solution in a manner described previously (Song et al., 2017). Signals were amplified using a MultiClamp 700B amplifier (Molecular Devices, CA, USA) at a cut-off frequency of 2.8 kHz and were measured with a Digidata 1440A interface (Molecular Devices) at a 10 kHz sampling frequency. Data were collected using pClamp 10.2 (Molecular Devices) software. The collected data were analyzed with a program created in the lab using Igor Pro (WaveMetrics, OR, USA). To record the field excitatory post-synaptic potential (fEPSP) in the hippocampal SC-CA1 synapse, hippocampal slices were placed in the recording chamber and perfused with ACSF while oxygen was fed continuously to the ACSF. The ACSF was maintained at a temperature of 29 to 30° C. using a heater for perfusion (SH-27B, Warner Instruments, CT, USA). A synapse response was induced by stimulation with a glass pipette (0.3 to 0.5 Mohm) every 20 seconds (0.05 Hz). The synapse response was recorded using a glass pipette (3 to 4 Mohm) filled with ACSF. The intensity of the stimulus was adjusted to produce a synapse response of about ⅓ of the maximum value thereof. The slices with unstable (10%) baseline records were excluded. To investigate the effect of syringaresinol (SYR) on the synaptic transmission, the field excitatory post-synaptic potential (fEPSP) of the Schaffer collateral (SC)-CA1 synapse of the hippocampus of adult mice (4 to 6 weeks of age) was measured. After confirming the stable baseline, different concentrations of SYR were applied thereto using the perfusion solution."}, "[3]": {"test_system": "SC-CA1 synapse synaptic vesicle pool", "experiment": "Readily releasable pool (RRP) size by cumulative amplitude analysis, 20 Hz train", "conditions": "100 μM; 80 stimuli at 20 Hz", "method": "Previous studies have shown that the secretion probability is regulated by the size of the readily releasable pool (RRP) of hippocampal neurons. Therefore, RRP was measured before and after treatment with SYR (100 μM). A high-frequency train (20 Hz) composed of more than 60 stimuli was prepared. 80 stimuli at 20 Hz was applied to completely remove RRP from the SC-CA1 synapse. RRP size was measured by cumulative amplitude analysis (Stevens and Williams, 2007; Wesseling and Lo, 2002). In the presence of AP-5 and picrotoxin, SYR inhibited AMPAR-EPSC (FIG. 5A and FIG. 5B). […] An extent by which RRP size is reduced was very close to an extent by which synapse is inhibited (FIG. 5B and FIG. 5F). […] This means that a decrease in RRP size may lead to the SYR-induced synapse decrease."}, "[4]": {"test_system": "Ca^2+ channel in CA1 neurons", "experiment": "Ca2+ channel current (Ba2+ current) recording in CA1 neurons", "conditions": "100 μM; depolarization −90 mV to −10 mV, 50 ms"}, "ERK": {"test_system": "ERK", "experiment": "Western blot of ERK activity (p-ERK/ERK) in hippocampal slices", "conditions": "100, 300 and 500 μM, 10 minutes treatment", "method": "After removing the CA3 region from the hippocampal slice surgically, the slices were recovered in the 36° C. and normal ACSF for 4 hours. Each sample was treated with each drug for 10 minutes, and then frozen using liquefied nitrogen. Western blot analysis of drug-induced changes in ERK activity in the hippocampal slices was performed in a manner as previously described (Song et al., 2017). The slices were homogenized using a probe sonicator in a cold lysis buffer about at a temperature of ice. The lysis buffer contained 50 mM HEPES, 100 mM NaCl, 5 mM EGTA, 5 mM EDTA, 1% Triton X-100, a phosphatase inhibitor mixer (GenDEPOT, TX, USA) and a protease inhibitor mixer (Sigma-Aldrich, MO, USA). The total protein concentration of the homogenate was determined by Bradford protein assay (Bio-Rad, CA, USA). Samples containing 10 to 12 μg of protein were separated using SDS-PAGE gels and transferred to the nitrocellulose membrane. The membrane was sequentially reacted with a primary antibody (p-ERK and ERK; Cell Signaling Technologies, MA, USA) and a secondary antibody (Jackson ImmunoResearch, USA) having horse radish peroxidase (HRP) coupled thereto. HRP signals were detected on an enhanced chemiluminescence (ECL) substrate (GE Healthcare, UK) and then quantified with MetaMorph software (Molecular Devices, CA, USA). […]"}}, "data": [{"smiles": "COc1cc(C2OCC3C(c4cc(OC)c(O)c(OC)c4)OCC23)cc(OC)c1O", "note": "(stereo not shown) [SYR, syringaresinol]", "values": [{"measurement": "amplitude of mIPSC", "setting": "[1]", "result": "did not affect"}, {"measurement": "frequency of mIPSC", "setting": "[1]", "result": "did not affect"}, {"measurement": "paired-pulse ratio (PPR) of fEPSP", "setting": "[2]; 30 μM and 100 μM, interval 100 ms", "result": "gradually increased"}, {"measurement": "first and second fEPSPs", "setting": "[2]; 30 μM", "result": "significantly decreased"}, {"measurement": "amplitude of fEPSP during SYR perfusion (1 h)", "setting": "[2]; 100 μM, 1 h", "result": "rapidly decreased and then remained stable"}, {"measurement": "PPR before vs one hour after application, small inter-pulse interval", "setting": "[2]; 100 μM, interval 200 ms", "result": "significant difference in PPR"}, {"measurement": "PPR before vs one hour after application, large inter-pulse interval", "setting": "[2]; 100 μM, interval 500 ms", "result": "no difference in PPR"}, {"measurement": "first and second fEPSPs", "setting": "[2]; 100 μM", "result": "significantly decreased"}, {"measurement": "inhibition at 500 µM", "setting": "[2]; Mus musculus, 500 μM of SYR, read-out: maximum inhibition of fEPSP", "result": "75.9 ± 1.6", "unit": "%"}, {"measurement": "IC50", "setting": "[2]; Mus musculus, SC-CA1 synapse, hippocampal slice, bath perfusion, read-out: IC50 for decrease of slope and amplitude of fEPSP", "result": 90, "unit": "µM"}, {"measurement": "post-synaptic response (fEPSP)", "setting": "[2]; high concentrations, >10 μM", "result": "decreased rapidly"}, {"measurement": "effect on fEPSP", "setting": "[2]; low concentrations, 1 to 5 μM", "result": "did not affect fEPSP"}, {"measurement": "PPR and fEPSP after washing the SYR with control solution", "setting": "[2]; washout", "result": "slowly recovered to baseline"}, {"measurement": "RRP size", "setting": "[3]", "result": "significant decrease"}, {"measurement": "Ba^2+ current mediated by the Ca^2+ channel", "setting": "[4]", "result": "rapidly reduced"}, {"measurement": "ERK activity", "setting": "ERK", "result": "did not affect ERK activity"}]}]}
